Where no end group is shown, it is not given here.

Experiment [1] relates to microtubule. Put plainly: Washability test of probe candidates. It counts as cell-based, Xenopus laevis. Also on record: key: “washability” is positive (P) when above criterion (2) is met. The conditions noted are these: speckles equal to or less than about 10% after switching imaging solution 10 to 20 times. The protocol: (§1) (2) It is possible to wash and remove a probe after SiMS imaging (imaging step);
(§2) The […] of the above (2), whose result is shown in table 1, was performed in the following procedures. […] This switching of imaging solution was conducted slowly so that the observation position would not shift. Next, an imaging solution not containing a probe and not containing the active oxygen-scavenging mix was switched 10 to 20 times. After the switching, for confirmation, for an XCT cell sample in the observation chamber, speckle images of 10 frames were picked up under a similar condition to that of the localization test described in the previous paragraph, and when the number of speckles confirmed in the speckle images (i.e., the number of probes that had bound) became sufficiently smaller (equal to or less than about 10%) than the number of the speckles in the speckle images before the washing operation, washing was determined to be possible and the result was treated as P (positive).

Experiment [2] has as its system microtubule. Put plainly: Measurement of binding half-life of probe-target complex. Also on record: species or system Xenopus laevis. The conditions noted are these: fixed XTC cell, single exponential fit. From the text:
(§3) A probe and a target substance have the following binding characteristics. […] The above half-life herein is preferably a half-life of a probe-target complex formed by binding between a probe and a target substance in a case when a medium containing a probe and a sample containing a target substance that is to be observed are brought into contact under a condition for performing an imaging step. […] Measurement procedures for the half-life are as below. […] Ndissociation is a cumulative relative frequency of a probe that dissociated. A cumulative relative frequency is a ratio of the speckles that disappeared within a given period of time to the total number of measured speckles (i.e. probes) (i.e. probes that dissociated within a given period of time), and represents the total number as 1. Then, by fitting the above complementary cumulative relative frequency function with an exponent function, that half-life is calculated.
The measurement of binding half-life, whose result is shown in table 1, was performed in the following procedures. Speckle images of 10000 frames picked up in the localization test were used in order to measure a period of time between the appearance of a probe that has bound to a target in a speckle image and disappearance through dissociation in a semi-manual mode by using Speckle TrackerJ, an ImageJ plug-in. In case of for example picking up of images with an exposure time of 50 ms and at a frame rate of 20 Hz, it is assumed that a period of time between the appearance and disappearance of a speckle that is observed in only one of consecutive frames is 50 ms and a period of time between the appearance and disappearance of a speckle observed in only two consecutive frames is 100 ms. […] Ndissociation is a cumulative relative frequency of probes that dissociated. Then, by fitting the complementary cumulative relative frequency function with an exponent function, the half-life was calculated. However, the binding half-life with respect to an actin filament of Atto488-Lifeact was measured by using a method that is described in detail in the section for FIG. 9 in the Brief Description of the Drawings.

In experiment [3] the test system is microtubule. Description: IRIS image test (reconstruction image). It counts as cell-based, Xenopus laevis. Also on record: key: “IRIS image” is positive (P) when above criterion (3) is met. The conditions noted are these: reconstruction from 10000 frames with DAOSTORM
As to the method:
(§4) […] It is possible to reconstruct an image of a target substance by integrating the central positions of the respective speckles. The IRIS image test of the above (3) whose result is described in table 1 was performed in the following procedures. By using all the speckle images of 10000 frames picked up in the localization test, the central point of a probe that has bound to a target in each frame of the speckle images was determined with nanometer accuracy by using DAOSTORM. By adding a large number of pieces of central point information in the fluorescence images of 10000 frames, a reconstruction image (observation image) was generated. Whether or not a distribution of a target molecule was able to be observed in that reconstruction image was determined, and when a distribution of a target molecule was observed, the result was treated as P (positive).

The subject of experiment [4] is microtubule. Put plainly: Localization test of probe candidates (integrated SiMS images). In kind it is cell-based, Xenopus laevis. Also on record: key: “localization” is positive (P) when above criterion (1) is met. To be noted: fixed, permeabilized XTC cell; lysate supernatant of EGFP fused probe; TIRF, 10000 frames. As to the method: (§5) HEK (Human embryonic kidney)-293F cells were transfected with a plasmid encoding a probe candidate protein tagged with FLAG-EGFP or 3×FLAG-EGFP. […] Centrifugal separation was performed on the lysate and the supernatant liquid was collected. In order to perform screening for a probe for IRIS, the binding capacity of a probe candidate in the supernatant liquid with respect to the structure of an XCT cell that was fixed with paraformaldehyde (PFA) and that received a permeabilization process was tested. The appearance and disappearance of single molecule speckles (Single-molecule speckles, SiMS) in the structure was tested. Screening was performed for a probe for IRIS in accordance with the following criteria:
(§6) (1) It is possible to confirm a distribution of target substances in the structure in an image resulting from adding SiMS images;
(§7) The localization test of the above (1), whose result is shown in table 1, was performed in the following procedures. First, the supernatant liquid of lysate of a cell that expressed each probe candidate was brought into contact with an XCT cell that was fixed on a coverglass and that received a permeabilization process. […] The obtained speckle images of 10000 frames were integrated so as to confirm whether or not a distribution of target substances in the cell (microtubule, intermediate filament, focal adhesion or actin filament) was able to be confirmed. When a distribution of a target substances was able to be confirmed, the result of the localization test was treated as P (positive).

The test system of experiment [5] is microtubule. Description: Labeling patterns of microtubules in TIRF IRIS images. It counts as cell-based, Xenopus laevis. The conditions noted are these: for labeling of microtubule plus end (tip): when EB1 existed (cold methanol-preprocessed cells). An excerpt: FIG. 12 show labeling patterns of microtubules by a CLIP-170 fragment (amino acid residues 3-309 of sequence number 12), an APC fragment (amino acid residues 2536-2843 of sequence number 14), a MAP4 fragment (amino acid residues 1-908 of sequence number 4) and Tau isoform 3 (full length of sequence number 5). The patterns are different depending upon procedures for fixing cells. FIG. 12 (a) and FIG. 12 (b) show live-cell imaging during the fixation operation. In FIG. 12 (a), the accumulation of EB1-EGFP at the tips of microtubules disappeared in a process by 3.7% PFA and 0.5% Triton-X 100. In FIG. 12 (b), EB1-EGFP was fixed in a state in which it was accumulated at the tips of the microtubules in a process by cold methanol. […] With these probes, IRIS images of the entire microtubules were obtained. […] The microtubule tips were labeled strongly with a CLIP-170 fragment while they were weakly labeled with a MAP4 fragment and Tau isoform 3 (see merged images in the lower tier).
A plurality of IRIS probes for a microtubule and a focal adhesion visualized different sites of their structure bodies. […] The result corresponds to in-vitro data (document 26). Further, Paxillin and the Src fragment visualized different portions of focal adhesion (FIG. 13). Thus, IRIS can also be applied to mapping analysis of a site in which a plurality of protein fragments bind. Development of an IRIS probe that binds to a molecule in a specific state also makes it is possible to perform super-resolution mapping on the molecule in the specific state.

Experiment [6] relates to focal adhesion. Description: Measurement of binding half-life of probe-target complex. Also on record: species or system Xenopus laevis. The conditions noted are these: fixed XTC cell, single exponential fit.
Description: as §3
The measurement of binding half-life, whose result is shown in table 1, was performed in the following procedures. […] Then, by fitting the complementary cumulative relative frequency function with an exponent function, the half-life was calculated. However, the binding half-life with respect to an actin filament of Atto488-Lifeact was measured by using a method that is described in detail in the section for FIG. 9 in the Brief Description of the Drawings.

The subject of experiment [7] is focal adhesion. Description: Washability test of probe candidates. In kind it is cell-based, Xenopus laevis. Also on record: key: “washability” is positive (P) when above criterion (2) is met. To be noted: speckles equal to or less than about 10% after switching imaging solution 10 to 20 times. The protocol: as §1, §2
The test system of experiment [8] is focal adhesion. Put plainly: IRIS image test (reconstruction image). It counts as cell-based, Xenopus laevis. Also on record: key: “IRIS image” is positive (P) when above criterion (3) is met. The conditions noted are these: reconstruction from 10000 frames with DAOSTORM
The protocol:
as §4

The test system of experiment [9] is focal adhesion. Description: Localization test of probe candidates (integrated SiMS images). It counts as cell-based, Xenopus laevis. To be noted: fixed, permeabilized XTC cell; lysate supernatant of EGFP fused probe; TIRF, 10000 frames. Also on record: key: “localization” is positive (P) when above criterion (1) is met. As to the method:
as §5, §6, §7

The subject of the next experiment is actin filament. The conditions noted are these: document 10; cited from earlier work.

Consider “TAU ISOFORM 3: EGFP fused (N terminus) human Tau isoform 3, full length 1-383 of sequence number 5”, for which the WASHABILITY entry with microtubule [1] is “P”. The substance further showed an HALF-LIFE in the experiment on microtubule [2] of 0.11 s. Moreover, the “IRIS IMAGE” value in the experiment on microtubule [3] was “P”. In addition, the LOCALIZATION result with microtubule [4] was “P”. Also, the “labeling of microtubule plus end (tip)” value with microtubule [5] is on record as “weakly visualized”.
The substance “Paxillin 1-557: EGFP fused (N terminus) human Paxillin, full length 1-557 of sequence number 15” returned an HALF-LIFE with focal adhesion [6] of 0.196 s. Also, in the experiment with focal adhesion [7], the WASHABILITY result was “P”. In the experiment with focal adhesion [8], the “IRIS IMAGE” value is on record as “P”. Further, in the experiment with focal adhesion [9], the LOCALIZATION entry is “P”.
“CLIP-170: EGFP fused (N terminus) rat CLIP-170 fragment, amino acid residues 3-309 of sequence number 12”: the WASHABILITY result with microtubule [1] is recorded as “P”. The substance further showed an HALF-LIFE with microtubule [2] of 0.044 s. Also, the “IRIS IMAGE” value with microtubule [3] is listed as “P”. Also, the LOCALIZATION entry in the experiment with microtubule [4] is recorded as “P”. Also, the labeling of microtubule entry in the experiment with microtubule [5] (when EB1 did not exist (PFA and Triton-X 100)) is on record as “continuously labeled the entire microtubule”. In addition, in the experiment with microtubule [5], the “labeling of microtubule plus end (tip)” value was “strongly labeled”.
On to “APC 2781-2819: EGFP fused (N terminus) human APC fragment, amino acid residues 2781-2819 of sequence number 14 ({EGFP}-VTPFNYNPSPRKSSADSTSARPSQIPTPVNNNTKKRDSK; UniProt P25054 2781-2819, looked up, fragment)”, for which, in the experiment with microtubule [1], the WASHABILITY entry was “P”. In addition, the HALF-LIFE in the experiment with microtubule [2] was found to be 0.027 s. In addition, the “IRIS IMAGE” value in the experiment with microtubule [3] is “P”. Further, the LOCALIZATION entry in the experiment with microtubule [4] was “P”.
“Paxillin 54-557: EGFP fused (N terminus) human Paxillin fragment, residues 54-557 of sequence number 15” came in with an HALF-LIFE in the experiment on focal adhesion [6] of 0.246 s. The WASHABILITY entry with focal adhesion [7] is recorded as “P”. Besides, in the experiment on focal adhesion [8], the “IRIS IMAGE” value was “P”. Further, the LOCALIZATION result with focal adhesion [9] is reported as “P”.
Take “Lifeact: widely used actin marker; short peptide that stains an actin filament in a live cell or a fixed cell (document 10) (MGVADLIKKFESISKEE)”: the “time of being exchanged on an actin filament” value in the experiment with actin filament was at most 0.4 s.
As to “MAP4 1-908: EGFP fused (N terminus) mouse MAP4 fragment, amino acid residues 1-908 of sequence number 4”, the WASHABILITY entry with microtubule [1] was “P”. Also, the HALF-LIFE in the experiment with microtubule [2] is 0.109 s. Moreover, the “IRIS IMAGE” value with microtubule [3] is given as “P”. Moreover, the LOCALIZATION result in the experiment on microtubule [4] is on record as “P”. Besides, the “labeling of microtubule plus end (tip)” value in the experiment with microtubule [5] is “weakly visualized”.
As for “APC 2536-2843: EGFP fused (C terminus) human APC fragment, amino acid residues 2536-2843 of sequence number 14”, in the experiment with microtubule [1], the WASHABILITY result is given as “P”. This substance also displayed an HALF-LIFE in the experiment on microtubule [2] of 0.1 s. Also, the “IRIS IMAGE” value in the experiment on microtubule [3] was “P”. In addition, the LOCALIZATION result with microtubule [4] is listed as “P”.
“TAU ISOFORM 4: EGFP fused (N terminus) human Tau isoform 4, 1-352 of sequence number 6”: in the experiment with microtubule [1], the WASHABILITY result was “P”. The HALF-LIFE in the experiment on microtubule [2] stood at 0.06 s. Besides, the “IRIS IMAGE” value in the experiment on microtubule [3] is given as “P”. For the same substance, in the experiment with microtubule [4], the LOCALIZATION entry is reported as “P”.

These data come from patent US10858688B2, “Observation method using binding and dissociation probe” (KYOTO UNIVERSITY, priority 2015, dated 2020).
